From patent US11897863B2, “Indazole amine derivative, preparation method therefor and medical use thereof” (ZHEJIANG HISUN PHARMACEUTICAL CO., LTD., priority 2018, dated 2024) come the findings set out here.

Molecules are shown by their SMILES.

A short description of data set [1]: Solubility test in phosphate buffer solution (PBS, pH7.4). Format: physicochemical. Conditions: PBS pH 7.4, room temperature, LC-UV.
Experimental: 1.5 mg of the test compound was taken, and PBS was added thereto to prepare the test solution with theoretical concentration of 2 mg·mL^−1. The test solution was ultrasonicated for 10 min, and rotated on a rotating tray at room temperature for at least 8 h. After the rotation treatment, the test solution was ultrasonicated for 10 min and centrifuged at 13000 rpm for 15 min. 100 μL of supernatant was transferred to a 0.6 mL new tube for spinning and rinsing for 5 min. 500 μL of supernatant was transferred into the above rinsed 0.6 mL tube. Then the tube was centrifuged at 13000 rpm for 15 min, and the supernatant was taken (or diluted) for analysis by LC-UV. Sample concentration was quantified by standard curve fitting (3 points).
For data set [2], the system named is TNF-α secretion in THP-1 cells. Nature of the data set: cells. Conditions: Homo sapiens, THP-1, 5 h, read-out: IC50 in inhibiting TNF-α secretion in THP-1 cells.
Experimental: Method for Determining THP-1 Cell Activity
In this experiment, TNF-α secretion was triggered by lipopolysaccharide (LPS) incubation.
After induced differentiation under the condition of 37° C. and 5% CO2 for 48 h, adherent macrophages were produced. Then PMA supernatant was removed and PBS was used to wash the cells once. In each case, all the drugs were dissolved in 100% DMSO to obtain an initial concentration of 10 mM. The drugs were filtered with 0.22 μm sterile filter membrane before use. LPS was dissolved in PBS with an initial concentration of 1 mg/mL. During use, it was diluted to 20 μg/mL with PBS. […] 200 μL of drugs were added to each well, and 50 μL of 20 μg/ml LPS (final concentration: 4 μg/mL) was added to each well. They were incubated in a 5% CO 2 incubator at 37° C. for 5 h. […]
Determination by using TNF-α ELISA kit: the amount of TNF-α was determined by R&D System Human TNF-α ELISA kit. […] 50 μL of Stop Solution (2N sulfuric acid stop solution) was added to each well and evenly mixed, and the absorbance at 450 nm was measured with microplate reader within 30 min. Compared with the fluorescence intensity ratio of the control group, the inhibition rate of the compound at each concentration was calculated, and then the IC 50 value of the compound was calculated by fitting the nonlinear curve of logarithmic concentration-inhibition rate with GraphPad Prism5.

`CC(C)(O)CCn1cc2cc(NC(=O)c3cccc(C(F)(F)F)n3)c(C(C)(C)O)cc2n1` [BAY-1834845]: the “Solubility in phosphate buffer solution (PBS, pH 7.4)” value in data set [1] came out at 6.7 uM.
As for `CN(C)CCn1cc2cc(NC(=O)c3cccc(C(F)(F)F)n3)c(C(C)(C)O)cc2n1` [Compound 1, N-(2-(2-(dimethylamino)ethyl)-6-(2-hydroxypropan-2-yl)-2H-indazol-5-yl)-6-(trifluoromethyl)pyridin-2-carboxamide], the IC50 in data set [2] amounted to 55 nM.

The term IC50 denotes the concentration at which inhibition is half-maximal.
